From patent publication US10561318B2, “Device, system and method for quantifying fluorescence and optical properties” (University Health Network, priority 2010, dated 2020)

Parameters: species or system patients
Method: Another example study is now described. In this example study, 14 patients with a variety of intracranial pathologies (including low- and high-grade gliomas, meningioma, and intracranial lung metastases, as indicated in FIG. 17) were administered 20-mg/kg of ALA 3 hours prior to induction of anesthesia. The neurosurgeon performed a conventional standard craniotomy procedure with image-guidance using a surgical microscope modified for PpIX fluorescence. At the surgical bed, the surgeon acquired multiple sets of measurements using an example probe, with corresponding tissue specimens collected and processed for histopathological analysis. […] In addition, the surgeon scored the visible fluorescence as viewed through the fluorescence-capable surgical microscope (scores from 0-4). All specimens were assessed as either normal or abnormal, such that presence of tumor cells was assessed as abnormal.
Receiver-Operator Characteristic Analysis: The receiver-operator characteristic (ROC) curves were generated using the PpIX concentrations as the parameter comparing normal tissue to these tumor populations: all tumors, all gliomas, low-grade gliomas (LGGs), high-grade gliomas (HGGs), meningiomas and metastases. […] The uncorrected fluorescence metric was the magnitude of the PpIX fluorescence peak from the raw fluorescence spectrum, i.e. Fx,m at 635 nm (see Eqs. 1 and 4). […]

- tumor-to-normal (T/N) ratio of in vivo PpIX concentration (human): 200
Structure (SMILES): C=CC1=C(C)c2cc3[nH]c(cc4nc(cc5[nH]c(cc1n2)c(C)c5CCC(=O)O)C(CCC(=O)O)=C4C)c(C)c3C=C [PpIX, protoporphyrin IX]
- PpIX in abnormal tissue compared to normal tissue (in vivo): approximately at least five times more PpIX
